# Results: patent US6737383B1, “Herbicidal oxadiazolidines” (priority 1999, dated 2004)
# Tests used:
# bedstraw = test: Test B pre/postemergence bedstraw; format: in vivo, Galium aparine; details: Postemergence; for Plant response rating, Bedstraw: scale 0 to 10, 0 is no effect, 10 is complete control; for Bedstraw plant response rating: scale of 0 to 10 where 0 is no effect and 10 is complete control
# In short: (§1)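 Herbicidal effect was estimated by eye on a ten-point control scale after plants spent twelve to sixteen days in a greenhouse following soil or foliar treatment. Foliar sprays targeted plants at one to four leaves; all doses were formulated in a non-phytotoxic solvent with surfactant.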
# bamyardgrass = test: Test B flood test barnyardgrass; format: in vivo, Echinochloa crus-galli
# In short: (§2)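 Flood test on plants grown to the 2-leaf stage; treated plants kept in greenhouse twelve to sixteen days, then visually rated against controls on a 0 (no effect) to 10 (complete control) scale.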
# purple nutsedge = test: Test B pre/postemergence purple nutsedge; format: in vivo, Cyperus rotundus
# In short: as §1
# cocklebur = test: Test B pre/postemergence cocklebur; format: in vivo, Xanthium strumarium
# In short: as §1
# surinam grass = test: Test B pre/postemergence surinam grass; format: in vivo, Brachiaria decumbens
# In short: as §1
# sugar beet = test: Test B pre/postemergence sugar beet; format: in vivo, Beta vulgaris
# In short: as §1
# wild oat = test: Test B pre/postemergence wild oat; format: in vivo, Avena fatua
# In short: as §1
# wheat = test: Test B pre/postemergence wheat; format: in vivo, Triticum aestivum
# In short: as §1
# rice = test: Test B flood test rice; format: in vivo, Oryza sativa
# In short: as §2
# giant foxtail = test: Test B pre/postemergence giant foxtail; format: in vivo, Setaria faberii
# In short: as §1
# blackgrass = test: Test B pre/postemergence blackgrass; format: in vivo, Alopecurus myosuroides
# In short: as §1
# duck salad = test: Test B flood test duck salad; format: in vivo, Heteranthera limosa
# In short: as §2
# rape = test: Test B pre/postemergence rape; format: in vivo, Brassica napus
# In short: as §1
# crabgrass = test: Test B pre/postemergence crabgrass; format: in vivo, Digitaria sanguinalis
# In short: as §1
# pigweed = test: Test B pre/postemergence pigweed; format: in vivo, Amaranthus retroflexus
# In short: as §1
# smallflower flatsedge = test: Test B flood test smallflower flatsedge; format: in vivo, Cyperus difformis
# In short: as §2
# corn = test: Test B pre/postemergence corn; format: in vivo, Zea mays
# In short: as §1
# soybean = test: Test B pre/postemergence soybean; format: in vivo, Glycine max
# In short: as §1
# velvetleaf = test: Test B pre/postemergence velvetleaf; format: in vivo, Abutilon theophrasti
# In short: as §1
# morningglory = test: Test B pre/postemergence morningglory; format: in vivo, Ipomoea hederacea
# In short: as §1
# [1] = Rate 62 g/ha, flood test species, Pre-emergence, visual evaluation after twelve to sixteen days
# [2] = Rate 125 g/ha, under heading Pre-emergence, flood test species, visual evaluation after twelve to sixteen days
# [3] = Rate 250 g/ha, Pre-emergence, flood-test species, scale 0 to 10, 0 is no effect, 10 is complete control
# [4] = Rate 500 g/ha, Pre-emergence, flood test species, scale 0 to 10 (0 no effect, 10 complete control)
# [5] = Postemergence, Rate 250 g/ha, scale 0 to 10, 0 is no effect, 10 is complete control
# [6] = Postemergence, Rate 500 g/ha, scale of 0 to 10 where 0 is no effect and 10 is complete control
# [7] = Preemergence, Rate 250 g/ha, scale 0 to 10, 0 is no effect, 10 is complete control
# [8] = Preemergence, Rate 500 g/ha, scale 0 to 10, 0 is no effect, 10 is complete control
# [9] = Postemergence, Rate 125 g/ha, scale 0 to 10, 0 is no effect, 10 is complete control
# [10] = Preemergence, Rate 62 g/ha, scale 0 to 10 (0 no effect, 10 complete control)
# [11] = Preemergence, Rate 125 g/ha, scale of 0 to 10 where 0 is no effect and 10 is complete control
# [12] = Rate 62 g/ha, Postemergence, scale of 0 to 10 where 0 is no effect and 10 is complete control
# [13] = Preemergence, Rate 250 g/ha, scale of 0 to 10 where 0 is no effect and 10 is complete control
compound,measurement,setting,value
CC(C)N(C(=O)n1oc(=O)n(C)c1=O)c1ccccc1 [Compound 409],"Plant response rating, Bedstraw",bedstraw; Rate 125 g/ha,2
same,"Plant response rating, Bedstraw",bedstraw; Rate 250 g/ha,2
same,Bedstraw plant response rating,bedstraw; Rate 500 g/ha,5
same,Bedstraw plant response rating,bedstraw; Rate 62 g/ha,0
same,"Plant response rating, Barnyardgrass (0 to 10 scale, 0 is no effect, 10 is complete control)",bamyardgrass; [1],1
same,"Barnyardgrass plant response rating (0 to 10 scale, 0 is no effect, 10 is complete control)",bamyardgrass; [2],2
same,Barnyardgrass plant response rating,bamyardgrass; [3],3
same,Barnyardgrass plant response rating,bamyardgrass; [4],3
same,"Plant response rating, Nutsedge",purple nutsedge; [5],0
same,Nutsedge plant response rating,purple nutsedge; [6],0
same,Nutsedge plant response rating,purple nutsedge; [7],8
same,Nutsedge plant response rating,purple nutsedge; [8],8
same,"Plant response rating, Cocklebur",cocklebur; [9],0
same,Cocklebur plant response rating,cocklebur; [6],1
same,"Plant response rating, Cocklebur",cocklebur; [10],0
same,"Plant response rating, Cocklebur",cocklebur; [11],0
same,Cocklebur plant response rating,cocklebur; [8],2
same,Cocklebur plant response rating,cocklebur; [12],0
same,"Plant response rating, B. signalgrass",surinam grass; [9],5
same,"Plant response rating, B. signalgrass",surinam grass; [5],8
same,B. signalgrass plant response rating,surinam grass; [6],9
same,"Plant response rating, B. signalgrass",surinam grass; [10],0
same,"Plant response rating, B. signalgrass",surinam grass; [11],4
same,B. signalgrass plant response rating,surinam grass; [13],7
same,B. signalgrass plant response rating,"surinam grass; Preemergence, Rate 500 g/ha, scale of 0 to 10 where 0 is no effect and 10 is complete control",9
same,B. signalgrass plant response rating,surinam grass; [12],3
same,"Plant response rating, Sugarbeets",sugar beet; [5],0
same,Sugarbeets plant response rating,sugar beet; [6],0
same,"Plant response rating, Sugarbeets",sugar beet; [10],2
same,"Plant response rating, Sugarbeets",sugar beet; [11],7
same,Sugarbeets plant response rating,sugar beet; [7],8
same,Sugarbeets plant response rating,sugar beet; [8],9
same,Wild oats plant response rating,wild oat; [6],4
same,"Plant response rating, Wild oats",wild oat; [10],0
same,"Plant response rating, Wild oats",wild oat; [11],5
same,Wild oats plant response rating,wild oat; [7],7
same,Wild oats plant response rating,wild oat; [8],8
same,Wheat plant response rating,wheat; [6],7
same,"Plant response rating, Wheat",wheat; [10],4
same,"Plant response rating, Wheat",wheat; [11],8
same,Wheat plant response rating,wheat; [7],9
same,Wheat plant response rating,wheat; [8],10
same,"Plant response rating, Rice (0 to 10 scale, 0 is no effect, 10 is complete control)",rice; [1],0
same,"Rice plant response rating (0 to 10 scale, 0 is no effect, 10 is complete control)",rice; [2],0
same,Rice plant response rating,rice; [3],0
same,Rice plant response rating,rice; [4],0
same,"Plant response rating, Giant foxtail",giant foxtail; [9],8
same,"Plant response rating, Giant foxtail",giant foxtail; [5],9
same,Giant foxtail plant response rating,giant foxtail; [6],9
same,"Plant response rating, Giant foxtail",giant foxtail; [10],9
same,"Plant response rating, Giant foxtail",giant foxtail; [11],10
same,Giant foxtail plant response rating,giant foxtail; [7],10
same,Giant foxtail plant response rating,giant foxtail; [8],10
same,Giant foxtail plant response rating,giant foxtail; [12],8
same,"Plant response rating, Blackgrass",blackgrass; [9],8
same,"Plant response rating, Blackgrass",blackgrass; [5],9
same,Blackgrass plant response rating,blackgrass; [6],10
same,"Plant response rating, Blackgrass",blackgrass; [10],4
same,"Plant response rating, Blackgrass",blackgrass; [11],7
same,Blackgrass plant response rating,blackgrass; [13],10
same,Blackgrass plant response rating,blackgrass; [8],10
same,Blackgrass plant response rating,blackgrass; [12],6
same,"Plant response rating, Ducksalad (0 to 10 scale, 0 is no effect, 10 is complete control)",duck salad; [1],0
same,"Ducksalad plant response rating (0 to 10 scale, 0 is no effect, 10 is complete control)",duck salad; [2],0
same,Ducksalad plant response rating,duck salad; [3],0
same,Ducksalad plant response rating,duck salad; [4],0
same,"Plant response rating, Rape",rape; [5],3
same,"Plant response rating, Rape",rape; [10],0
same,"Plant response rating, Rape",rape; [11],0
same,Rape plant response rating,rape; [7],4
same,Rape plant response rating,rape; [8],6
same,"Plant response rating, Crabgrass",crabgrass; [9],9
same,"Plant response rating, Crabgrass",crabgrass; [5],9
same,Crabgrass plant response rating,crabgrass; [6],9
same,"Plant response rating, Crabgrass",crabgrass; [10],9
same,"Plant response rating, Crabgrass",crabgrass; [11],9
same,Crabgrass plant response rating,crabgrass; [7],10
same,Crabgrass plant response rating,crabgrass; [8],10
same,Crabgrass plant response rating,crabgrass; [12],6
same,"Plant response rating, Redroot pigweed",pigweed; [5],4
same,Redroot pigweed plant response rating,pigweed; [6],5
same,"Plant response rating, Redroot pigweed",pigweed; [10],7
same,"Plant response rating, Redroot pigweed",pigweed; [11],8
same,Redroot pigweed plant response rating,pigweed; [7],8
same,Redroot pigweed plant response rating,pigweed; [8],10
same,"Plant response rating, S. Flatsedge (0 to 10 scale, 0 is no effect, 10 is complete control)",smallflower flatsedge; [1],0
same,"S. Flatsedge plant response rating (0 to 10 scale, 0 is no effect, 10 is complete control)",smallflower flatsedge; [2],0
same,S. Flatsedge plant response rating,smallflower flatsedge; [3],2
same,S. Flatsedge plant response rating,smallflower flatsedge; [4],2
same,"Plant response rating, Corn",corn; [9],5
same,"Plant response rating, Corn",corn; [5],7
same,Corn plant response rating,corn; [6],7
same,"Plant response rating, Corn",corn; [10],7
same,"Plant response rating, Corn",corn; [11],8
same,Corn plant response rating,corn; [7],8
same,Corn plant response rating,corn; [8],10
same,Corn plant response rating,corn; [12],0
same,"Plant response rating, Soybean",soybean; [5],5
same,Soybean plant response rating,soybean; [6],5
same,"Plant response rating, Soybean",soybean; [10],0
same,"Plant response rating, Soybean",soybean; [11],0
same,Soybean plant response rating,soybean; [7],1
same,Soybean plant response rating,soybean; [8],8
same,"Plant response rating, Velvetleaf",velvetleaf; [5],0
same,Velvetleaf plant response rating,velvetleaf; [6],0
same,"Plant response rating, Velvetleaf",velvetleaf; [10],2
same,"Plant response rating, Velvetleaf",velvetleaf; [11],5
same,Velvetleaf plant response rating,velvetleaf; [7],6
same,Velvetleaf plant response rating,velvetleaf; [8],8
same,"Plant response rating, Morningglory",morningglory; [5],9
same,Morningglory plant response rating,morningglory; [6],10
same,"Plant response rating, Morningglory",morningglory; [10],0
same,"Plant response rating, Morningglory",morningglory; [11],2
same,Morningglory plant response rating,morningglory; [7],5
same,Morningglory plant response rating,morningglory; [8],5
